Values joined by “and” are separate entries in the source; they are usually repeats but may differ in a detail not shown here. Identical values can stand only once. Toxic doses and inconclusive results are not listed.
Tested on: B6C3F1 mice, Lewis lung carcinoma iv, survival T/C
Test: NCI In Vivo Anticancer Drug Screen. Data for tumor model Lewis Lung Carcinoma (intravenous) in B6C3F1 mice
Settings: endpoint: median survival time, schedule: Q01DX009 (ip), higher = longer survival
Method in brief: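 T/C ratio derived from survival of compound-treated versus vehicle-treated mice bearing transplantable tumors.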

[1] = dose: 25.0 mg/kg/injection, vehicle: Klucel (hydroxypropylcellulose) (HPC)
[2] = dose: 50.0 mg/kg/injection, vehicle: Klucel (hydroxypropylcellulose) (HPC)
[3] = dose: 100.0 mg/kg/injection, vehicle: Klucel (hydroxypropylcellulose) (HPC)
[4] = dose: 200.0 mg/kg/injection, vehicle: Klucel (hydroxypropylcellulose) (HPC)
[5] = dose: 400.0 mg/kg/injection, vehicle: Klucel (hydroxypropylcellulose) (HPC)
[6] = dose: 6.25 mg/kg/injection, vehicle: saline
[7] = dose: 12.5 mg/kg/injection, vehicle: saline
[8] = dose: 25.0 mg/kg/injection, vehicle: saline
[9] = dose: 50.0 mg/kg/injection, vehicle: saline
[10] = dose: 12.5 mg/kg/injection, vehicle: saline with Tween-80
[11] = dose: 25.0 mg/kg/injection, vehicle: saline with Tween-80
[12] = dose: 50.0 mg/kg/injection, vehicle: saline with Tween-80
[13] = dose: 100.0 mg/kg/injection, vehicle: saline with Tween-80
[14] = dose: 4.0 mg/kg/injection, vehicle: saline with Tween-80
[15] = dose: 8.0 mg/kg/injection, vehicle: saline with Tween-80

CN=C(NC#N)NCCSCc1nc[nH]c1C
T/C (dose: 12.0 mg/kg/injection, vehicle: Klucel (hydroxypropylcellulose) (HPC)): 104 % of control
T/C [1]: 100 % of control
T/C [2]: 103 % of control
T/C [3]: 99 % of control
T/C [4]: 105 % of control
T/C [5]: 95 % of control

Cc1ccc(S(=O)(=O)OCOS(=O)(=O)c2ccc(C)cc2)cc1
T/C [2]: 107 % of control
T/C [3]: 103 % of control
T/C [4]: 108 % of control
T/C [5]: 117 % of control

O=C(CN1CCOCC1)Nc1nc(-c2ccc(Cl)cc2)cs1
T/C (dose: 50.0 mg/kg/injection, vehicle: DMSO): 91 % of control
T/C (dose: 100.0 mg/kg/injection, vehicle: DMSO): 92 % of control
T/C (dose: 200.0 mg/kg/injection, vehicle: DMSO): 103 % of control
T/C (dose: 400.0 mg/kg/injection, vehicle: DMSO): 100 % of control
T/C (dose: 800.0 mg/kg/injection, vehicle: DMSO): 95 % of control

CCC(C(=O)O)C(=O)O.[NH2-].[NH2-].[Pt+2]
T/C (dose: 3.12 mg/kg/injection, vehicle: saline): 102 % of control
T/C [6]: 103 % of control
T/C [7]: 120 % of control
T/C [8]: 112 % of control and 120 % of control
T/C [9]: 109 % of control and 118 % of control

CCNC(=O)[B-][N+](C)(C)C
T/C (dose: 12.5 mg/kg/injection, vehicle: Klucel (hydroxypropylcellulose) (HPC)): 98 % of control
T/C [1]: 103 % of control
T/C [2]: 100 % of control
T/C [3]: 106 % of control

CC(=O)N(C)c1ccc(Nc2cc(C)[nH]c3ccc4ncnc4c23)cc1
T/C [6]: 100 % of control
T/C [7]: 100 % of control
T/C [8]: 105 % of control
T/C [9]: 102 % of control

O=CCC(O)C(O)C(O)CO (stereo unspecified)
T/C (dose: 300.0 mg/kg/injection, vehicle: suspension in saline): 102 % of control
T/C (dose: 600.0 mg/kg/injection, vehicle: suspension in saline): 108 % of control
T/C (dose: 1200.0 mg/kg/injection, vehicle: suspension in saline): 114 % of control
T/C (dose: 1800.0 mg/kg/injection, vehicle: suspension in saline): 117 % of control
T/C (dose: 2400.0 mg/kg/injection, vehicle: suspension in saline): 106 % of control

CCCCc1ccc2nc(NC(=O)OC)[nH]c2c1
T/C (dose: 6.25 mg/kg/injection, vehicle: saline with Tween-80): 111 % of control
T/C [10]: 97 % of control
T/C [11]: 95 % of control
T/C [12]: 95 % of control
T/C [13]: 111 % of control

CC(=O)O[C@@]1(C)[C@@H](C)C(=O)O[C@@H]2CCN3CC=C(COC(=O)[C@]1(C)O)[C@H]23
T/C [11]: 110 % of control
T/C [12]: 113 % of control
T/C [13]: 285 % of control

C/C=C/C=C1/OC(C)=C(C(C)=O)C1=O
T/C [10]: 123 % of control
T/C [11]: 108 % of control
T/C [12]: 93 % of control
T/C [13]: 103 % of control

CN(C)CCN1C(=O)c2cccc3cc(N)cc(c23)C1=O
T/C (dose: 1.0 mg/kg/injection, vehicle: saline with Tween-80): 115 % of control
T/C (dose: 2.0 mg/kg/injection, vehicle: saline with Tween-80): 106 % of control
T/C [14]: 111 % of control
T/C [15]: 119 % of control

O=NN(CCCl)C(=O)NCCO
T/C (dose: 0.78 mg/kg/injection, vehicle: water): 107 % of control
T/C (dose: 3.12 mg/kg/injection, vehicle: water): 184 % of control and 213 % of control and 215 % of control
T/C (dose: 6.25 mg/kg/injection, vehicle: water): 178 % of control and 312 % of control
T/C (dose: 12.5 mg/kg/injection, vehicle: water): 90 % of control

C=C1C(=O)OCC1(C(=O)OCC)C(=O)OCC
T/C [14]: 95 % of control
T/C [15]: 103 % of control
T/C (dose: 16.0 mg/kg/injection, vehicle: saline with Tween-80): 105 % of control
T/C (dose: 32.0 mg/kg/injection, vehicle: saline with Tween-80): 96 % of control

O=C(O)CC(=O)O.[NH-]CC[NH-].[Pt+2]
T/C (dose: 1.56 mg/kg/injection, vehicle: dextrose): 108 % of control
T/C (dose: 3.12 mg/kg/injection, vehicle: dextrose): 107 % of control and 120 % of control
T/C (dose: 6.25 mg/kg/injection, vehicle: dextrose): 105 % of control and 109 % of control
T/C (dose: 12.5 mg/kg/injection, vehicle: dextrose): 102 % of control and 119 % of control

Reference: PubChem BioAssay AID276 (DTP/NCI, 2004)
